Structures are written as SMILES.

The test system of the assay is LPS triggered IL-10 secretion in monocyte-derived macrophages (MdM). As to the kind of experiment: MdM assay: LPS-triggered IL-10 (ELISA). Conditions: LPS 200 ng/mL, supernatant after 2 h, maximal fold change vs LPS only. In kind it is cell-based, human. How it is done: SIK inhibition inhibits TNFα and increases IL-10 release in LPS triggered monocyte-derived macrophages (MdM) and dendritic […] al. 2012; Sundberg et al. 2014; Ozanne et al. 2015). This assay evaluates illustrative compounds of the invention for their inhibition of LPS-induced TNFα and LPS triggered IL-10 secretion in monocyte-derived macrophages. PBMCs are isolated from human blood samples (buffycoats). The buffy coat is aseptically transferred into a 50 mL Falcon tube, and diluted 1/2 in PBS. Falcon tubes are filled with 20 mL LymphoprepTM, on top of which 25 mL of the buffy coat is carefully added, tubes are centrifuged for 35 min at 400 g in temperature controlled centrifuge, without brake, at 25° C. PBMCs are aspirated from the white interface layer between sample and LymphoprepTM. PBMCs are washed five times in PBS. Cells are resuspended in RPMI 1640 complete medium supplemented with 10% FBS, 1% P/S, and cell density is determined using a hematologic analyzer (Sysmex XS-500i). PBMCs are centrifuged at 300×g for 10 min and resuspended at a density of 1.0*10^7 cells/80 μL Miltenyi buffer (PBS, pH 7.4, 1% FBS, 2 mM EDTA). Starting from this point of the protocol all steps are performed on ice. 20 μL of CD14+ micro-beads are added per 1.0*10^7 cells, the tube is mixed and incubated for 15 min in the fridge at 4° C. Cell suspension volume is adjusted to total volume of 100 mL using Miltenyi buffer, mixed gently and subsequently centrifuged for 10 min at 300×g. Supernantant is discarded and cell pellet is resuspended in 12 mL of Miltenyi buffer. Four LS columns are placed in the MACS Separator (magnet) from Miltenyi Biotec, and are prewet by rinsing with 3 mL of MACS buffer per column. Three mL of cell suspension is added onto the column (max 1*10^8 of labelled cells/column), and columns are subsequently washed 3 times with 3 mL of Miltenyi buffer. The columns are removed from the magnets, and 5 mL of Miltenyi buffer are added to the column to flush out the CD14+ fraction by pushing the plunger into the column. The flushed fractions are collected in a fresh 50 mL Falcon and volume is adjusted to 30 mL using Miltenyi buffer, cells are centrifuged for 10 min at 300×g. The obtained cell pellet is resuspended in 10 mL RPMI w/o FBS, and cell density is determined using a hematologic analyser (Sysmex XS-500i). 100 000 cells are seeded per well of a 96-well plate for differentiation to MdM in RPMI 1640 medium supplemented with 10% FBS, 1% P/S and 100 ng/mL rhM-CSF. On day 5 the medium is refreshed with 100 μL RPMI 1640 medium supplemented with 10% FBS, 1% P/S and 100 ng/mL rhM-CSF. On day 10, MdMs are triggered and compound is added. A compound dilution plate is made in 100% DMSO by 3-fold dilution of 10 mM stock solution. An intermediate dilution plate (10× final concentration) is made by diluting the compound dilution plate 50-fold in RPMI medium. Medium is carefully removed from cell plates using multichannel pipette, and replaced by 80 μL fresh medium. 10 μL of the 10× final concentration compound is added to the cells and incubated for 1 hour at 37° C. before addition of trigger. No trigger conditions/trigger conditions are spiked with equal final DMSO concentrations of 0.2% DMSO. 10 μL of 10×LPS (final conc. 200 ng/mL) solution are added to all wells except for the 'no trigger wells' where 10 μL medium is added. Supernatant is collected after 2 h (IL-10 determination) and after 20 h (TNFα determination) of LPS triggering. […]
With `COc1cc(-c2cnc3cc(OC[C@H]4CCCCN4C)ccn23)cc(OC(F)F)c1C(=O)NC1CC1` [compound 111, N-cyclopropyl-2-(difluoromethoxy)-6-methoxy-4-[7-[[(2R)-1-methyl-2-piperidyl]methoxy]imidazo[1,2-a]pyridin-3-yl]benzamide], the “IL-10 FCmax median” value is on record as “++ (>1.5-4.5)”.

As to `COc1cc(-c2cnc3cc(OCC4CN(C)C4)ccn23)cc2c1C(=O)N(CC(F)(F)F)CC2` [compound 39, 8-methoxy-6-[7-[(1-methylazetidin-3-yl)methoxy]imidazo[1,2-a]pyridin-3-yl]-2-(2,2,2-trifluoroethyl)-3,4-dihydro isoquinolin-1-one], the “IL-10 FCmax median” value is on record as “++ (>1.5-4.5)”.

Take `COc1cc(-c2cnc3cc(OCCN4CCCCC4)ccn23)cc(OC(F)F)c1C(=O)NC1CC1` [compound 10, N-cyclopropyl-2-(difluoromethoxy)-6-methoxy-4-[7-[2-(1-piperidyl)ethoxy]imidazo [1,2-a]pyridin-3-yl]benzamide]: the “IL-10 FCmax median” value is on record as “++ (>1.5-4.5)”.

On to `COc1cc(-c2cnc3cc(OCc4nncn4C)ccn23)cc(OC(F)F)c1C(=O)NC1CC1` [compound 227, N-cyclopropyl-2-(difluoromethoxy)-6-methoxy-4-[7-[(4-methyl-1,2,4-triazol-3-yl)methoxy]imidazo[1,2-a]pyridin-3-yl]benzamide], for which the “IL-10 FCmax median” value is reported as “++ (>1.5-4.5)”.

Take `CNc1cc(-c2cnc3cc(OCCN(C)C)ccn23)cc(OC(F)F)c1C(=O)NCC(F)(F)F` [Cpd 165, 2-(difluoromethoxy)-4-[7-[2-(dimethylamino)ethoxy]imidazo[1,2-a]pyridin-3-yl]-6-(methylamino)-N-(2,2,2-trifluoroethyl)benzamide]: the “IL-10 FCmax median” value is given as “++ (>1.5-4.5)”.

On to `COc1cc(-c2cnc3cc(OCCN4CCOCC4)ccn23)cc2c1C(=O)N(CC(F)F)CC2` [compound 218, 2-(2,2-difluoroethyl)-8-methoxy-6-[7-(2-morpholinoethoxy)imidazo [1,2-a]pyridin-3-yl]-3,4-dihydroisoquinolin-1-one], for which the “IL-10 FCmax median” value is given as “++ (>1.5-4.5)”.

As for `COc1cc(-c2cnc3cc(OCCN4CCS(=O)(=O)CC4)ccn23)cc2c1C(=O)N(CC(F)(F)F)CC2` [compound 41, 6-[7-[2-(1,1-dioxo-1,4-thiazinan-4-yl)ethoxy]imidazo[1,2-a]pyridin-3-yl]-8-methoxy-2-(2,2,2-trifluoroethyl)-3,4-dihydroisoquinolin-1-one], the “IL-10 FCmax median” value is given as “++ (>1.5-4.5)”.

For the compound `COc1cc(-c2cnc3cc(OCCN(C)C)ccn23)cc2c1C(=O)N(CC(F)F)CC2` [compound 54, 2-(2,2-difluoroethyl)-6-[7-[2-(dimethylamino)ethoxy]imidazo [1,2-a]pyridin-3-yl]-8-methoxy-3,4-dihydro isoquinolin-1-one], the “IL-10 FCmax median” value was “++ (>1.5-4.5)”.

For `COc1cc(-c2cnc3cc(OCCN(C)C)ccn23)cc2c1C(=O)N(CC(F)(F)F)CC2` [Cpd 18, 6-[7-[2-(dimethylamino)ethoxy]imidazo[1,2-a]pyridin-3-yl]-8-methoxy-2-(2,2,2-trifluoroethyl)-3,4-dihydroisoquinolin-1-one], the “IL-10 FCmax median” value is “++ (>1.5-4.5)”.

In the case of `COc1cc(-c2cnc3cc(OCC4CCO4)ccn23)cc2c1C(=O)N(CC(F)(F)F)CC2` (stereo not shown) [compound 125, 8-methoxy-6-[7-(oxetan-2-ylmethoxy)imidazo[1,2-a]pyridin-3-yl]-2-(2,2,2-trifluoroethyl)-3,4-dihydroisoquinolin-1-one], the “IL-10 FCmax median” value is “++ (>1.5-4.5)”.

As to `COc1cc(-c2cnc3cc(OCC4CCCCN4C)ccn23)cc(OC(F)F)c1C(=O)NC1CC1` (stereo not shown) [compound 23, N-cyclopropyl-2-(difluoromethoxy)-6-methoxy-4-[7-[(1-methyl-2-piperidyl)methoxy]imidazo[1,2-a]pyridin-3-yl]benzamide], the “IL-10 FCmax median” value is on record as “++ (>1.5-4.5)”.

For the compound `COc1cc(-c2cnc3cc(OC[C@@H]4COCCO4)ccn23)cc2c1C(=O)N(CC(F)(F)F)CC2` [compound 225, 6-[7-[[(2S)-1,4-dioxan-2-yl]methoxy]imidazo[1,2-a]pyridin-3-yl]-8-methoxy-2-(2,2,2-trifluoroethyl)-3,4-dihydroisoquinolin-1-one], the “IL-10 FCmax median” value was “++ (>1.5-4.5)”.

With `COc1cc(-c2cnc3cc(OCC(O)CN4CCCCC4)ccn23)cc(OC(F)F)c1C(=O)NC1CC1` (stereo not shown) [Cpd 321, N-cyclopropyl-2-(difluoromethoxy)-4-[7-[2-hydroxy-3-(1-piperidyl)propoxy]imidazo [1,2-a]pyridin-3-yl]-6-methoxy-benzamide], the “IL-10 FCmax median” value is “++ (>1.5-4.5)”.

In the case of `COc1cc(-c2cnc3cc(OCCC4CCCN4C)ccn23)cc2c1C(=O)N(CC(F)(F)F)CC2` (stereo not shown) [Cpd 122, 8-methoxy-6-[7-[2-(1-methylpyrrolidin-2-yl)ethoxy]imidazo[1,2-a]pyridin-3-yl]-2-(2,2,2-trifluoroethyl)-3,4-dihydroisoquinolin-1-one], the “IL-10 FCmax median” value was “++ (>1.5-4.5)”.

For `COc1cc(-c2cnc3cc(OCCN(C)C)ccn23)cc(OC(F)F)c1C(=O)NC1CC1` [Cpd 6, N-cyclopropyl-2-(difluoromethoxy)-4-[7-[2-(dimethylamino)ethoxy]imidazo[1,2-a]pyridin-3-yl]-6-methoxy-benzamide], the “IL-10 FCmax median” value is given as “++ (>1.5-4.5)”.

Regarding `COc1cc(-c2cnc3cc(OCC4CN(C)CCO4)ccn23)cc2c1C(=O)N(CC(F)(F)F)CC2` (stereo not shown) [compound 127, 8-methoxy-6-[7-[(4-methylmorpholin-2-yl)methoxy]imidazo[1,2-a]pyridin-3-yl]-2-(2,2,2-trifluoroethyl)-3,4-dihydroisoquinolin-1-one], the “IL-10 FCmax median” value was “++ (>1.5-4.5)”.

Consider `CNc1cc(-c2cnc3cc(OCCN(C)C)ccn23)cc2c1C(=O)N(CC(F)(F)F)CC2` [compound 167, 6-[7-[2-(dimethylamino)ethoxy]imidazo[1,2-a]pyridin-3-yl]-8-(methylamino)-2-(2,2,2-trifluoroethyl)-3,4-dihydroisoquinolin-1-one], for which the “IL-10 FCmax median” value was “+ (≤1.5)”.

Turning to `COc1cc(-c2cnc3cc(OCCC4CCCN4C)ccn23)cc(OC(F)F)c1C(=O)NC1CC1` (stereo not shown) [compound 17, N-cyclopropyl-2-(difluoromethoxy)-6-methoxy-4-[7-[2-(1-methylpyrrolidin-2-yl)ethoxy]imidazo[1,2-a]pyridin-3-yl]benzamide], the “IL-10 FCmax median” value is recorded as “++ (>1.5-4.5)”.

As to `CN(C)CCOc1ccn2c(-c3cc4c(c(OC(F)F)c3)C(=O)N(CC(F)F)CC4)cnc2c1` [Cpd 150, 2-(2,2-difluoroethyl)-8-(difluoromethoxy)-6-[7-[2-(dimethylamino)ethoxy]imidazo[1,2-a]pyridin-3-yl]-3,4-dihydroisoquinolin-1-one], the “IL-10 FCmax median” value is given as “++ (>1.5-4.5)”.

As for `CCOC(=O)C1(F)CCN(CC(O)COc2ccn3c(-c4cc(OC)c(C(=O)NC5CC5)c(OC(F)F)c4)cnc3c2)CC1` (stereo not shown) [compound 384, ethyl 1-[3-[3-[4-(cyclopropylcarbamoyl)-3-(difluoromethoxy)-5-methoxy-phenyl]imidazo[1,2-a]pyridin-7-yl]oxy-2-hydroxy-propyl]-4-fluoro-piperidine-4-carboxylate], the “IL-10 FCmax median” value is “++ (>1.5-4.5)”.

Turning to `CCN1CCCCC1COc1ccn2c(-c3cc(OC)c(C(=O)NC4CC4)c(OC(F)F)c3)cnc2c1` (stereo not shown) [compound 83, N-cyclopropyl-2-(difluoromethoxy)-4-[7-[(1-ethyl-2-piperidyl)methoxy]imidazo [1,2-a]pyridin-3-yl]-6-methoxy-benzamide], the “IL-10 FCmax median” value was “++ (>1.5-4.5)”.

For `CCN(CC)CCOc1ccn2c(-c3cc4c(c(OC)c3)C(=O)N(CC(F)(F)F)CC4)cnc2c1` [compound 128, 6-[7-[2-(diethylamino)ethoxy]imidazo[1,2-a]pyridin-3-yl]-8-methoxy-2-(2,2,2-trifluoroethyl)-3,4-dihydroisoquinolin-1-one], the “IL-10 FCmax median” value is listed as “++ (>1.5-4.5)”.

(Values after US12264156B2, “Compounds and pharmaceutical compositions thereof for the treatment of diseases” (GALAPAGOS NV, priority 2018, dated 2025).)
